Results on ten molecules are retold here after patent US20240270762A1, “PENICILLIN-BINDING PROTEIN INHIBITORS” (priority 2021, published 2024).

SMILES strings stand for the structures. In brackets after ≈: the same amount, converted by molar mass. Where two headings read alike, the source gives them in different places. Bounds are passed on as bounds.

Experiment [1] concerns the target T1, PBP3 from Acinetobacter baumannii (ATCC 19606) (Acinetobacter baumannii, UniProt A0ABX6CK25).
T1 sequence (A0ABX6CK25 64-610): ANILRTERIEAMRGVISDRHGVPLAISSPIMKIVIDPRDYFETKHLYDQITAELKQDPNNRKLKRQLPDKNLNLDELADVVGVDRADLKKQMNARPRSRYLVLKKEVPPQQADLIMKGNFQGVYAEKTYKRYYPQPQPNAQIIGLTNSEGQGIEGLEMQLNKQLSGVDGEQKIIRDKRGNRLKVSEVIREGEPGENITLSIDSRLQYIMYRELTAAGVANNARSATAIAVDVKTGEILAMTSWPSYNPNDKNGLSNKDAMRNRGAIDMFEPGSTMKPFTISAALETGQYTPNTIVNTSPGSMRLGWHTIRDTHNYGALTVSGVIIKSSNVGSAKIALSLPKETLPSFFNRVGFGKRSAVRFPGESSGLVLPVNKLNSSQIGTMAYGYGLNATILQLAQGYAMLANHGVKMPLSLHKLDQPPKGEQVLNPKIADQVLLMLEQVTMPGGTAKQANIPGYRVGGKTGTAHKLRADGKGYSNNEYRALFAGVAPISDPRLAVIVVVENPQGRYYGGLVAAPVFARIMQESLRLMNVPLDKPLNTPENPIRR
The experiment can be described thus: Bocillin-FL fluorescence polarization competition binding, A. baumannii PBP3. The note with it: fluorescence polarization competition binding assay using Bocillin-FL; read-out: A. baumannii PBP3 Potency. An outline of the steps: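 Purified PBPs pre-incubated with inhibitor (E. coli PBP3 1.5 μM, 30 min; P. aeruginosa PBP3 0.75 μM, A. baumannii PBP1a 1 μM and PBP3 0.2 μM, 15 min), then Bocillin-FL 0.1 μM (0.05 μM for PBP1a) added; FP read up to 60 min. EC50 = concentration halving bound Bocillin-FL.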

Experiment [2] has as its system B. thailandensis ATCC 700388. As to the kind of experiment: microbe, parasite or virus in culture. Format: cell-based. The note with it: Burkholderia thailandensis, ATCC700388, read-out: Minimum inhibitory concentration (MIC), B. thailandensis ATCC 700388.
Experiment [3] relates to A. baumannii ATCC 17978. As to the kind of experiment: microbe, parasite or virus in culture. The note with it: Acinetobacter baumannii. The experiment is classed as cell-based.
The subject of experiment [4] is B. humptydooensis ATCC BAA-2767. The experiment can be described thus: microbe, parasite or virus in culture. Format: cell-based. The note with it: Burkholderia humptydooensis, ATCCBAA2767, read-out: Minimum inhibitory concentration (MIC), B. humptydooensis ATCC BAA-2767.
Experiment [5] deals with A. baumannii CDC-0045. The experiment can be described thus: microbe, parasite or virus in culture. Format: cell-based. The settings on record: Acinetobacter baumannii.
Experiment [6] has as its system A. baumannii CDC-0033. The experiment can be described thus: microbe, parasite or virus in culture. The experiment is classed as cell-based. The note with it: Acinetobacter baumannii.
The subject of experiment [7] is P. aeruginosa ATCC 35151. The experiment can be described thus: microbe, parasite or virus in culture. The experiment is classed as cell-based. The note with it: Pseudomonas aeruginosa, ATCC35151, read-out: Minimum inhibitory concentration, P. aeruginosa ATCC 35151.
Experiment [8] has as its system P. aeruginosa CDC-0054. The experiment can be described thus: microbe, parasite or virus in culture. Format: cell-based. The settings on record: Pseudomonas aeruginosa, CDC0054, read-out: Minimum inhibitory concentration, P. aeruginosa CDC-0054.
The subject of experiment [9] is A. baumannii 1258916. The experiment can be described thus: microbe, parasite or virus in culture. Format: cell-based, Acinetobacter baumannii.
The subject of experiment [10] is P. aeruginosa (ΔmexAB-oprM). The experiment can be described thus: Broth microdilution MIC in iron-depleted CAMHB (IDM). Format: cell-based. The settings on record: Pseudomonas aeruginosa; iron-depleted CAMHB (IDM); […]; read-out: Minimum inhibitory concentration, P. aeruginosa ΔmexAB-oprM.
Setting [11] is: ATCC17978, read-out: MIC, A. baumannii ATCC 17978.
[12] abbreviates: CDC0045, read-out: MIC, A. baumannii CDC-0045.
[13] abbreviates: CDC0033, read-out: MIC, A. baumannii CDC-0033.
The mark [14] stands for this setting: Acinetobacter baumannii, 1258916, read-out: MIC, A. baumannii 1258916.

For `O=C(O)c1c(F)ccc2c1OB(O)[C@@H](NC(=O)[C@H](NC(=O)N1CCN(C3CCN(C(=O)c4cc(O)ccc4F)CC3)C1=O)c1cc(F)c(O)c(O)c1Cl)C2` (single isomer, unassigned) [Example 433], the IC50 in experiment [1] was less than 10 µM. Also, the MIC in [2], in experiment [3] (setting [11]), in experiment [4], in [5] (setting [12]), in [6] (setting [13]) and in experiment [7] was less than 1 µg/mL in each case. Besides, the MIC in [8], in [9] (setting [14]) and in [10] was less than 1 µg/mL each time.

As to `O=C(O)c1c(F)ccc2c1OB(O)[C@@H](NC(=O)[C@H](NC(=O)N1CCN(C3CCN(C(=O)Nc4ccc(F)c(O)c4)CC3)C1=O)c1cc(F)c(O)c(O)c1Cl)C2` (single isomer, unassigned) [Example 449], the IC50 in experiment [1] was less than 10 µM. In addition, the MIC in experiment [2] is less than 1 µg/mL; in experiment [3] (setting [11]) it was less than 1 µg/mL; in [4], 2 to 4 µg/mL (≈ 2.53 to 5.06 µM); in experiment [5] (setting [12]) it was less than 1 µg/mL; in experiment [6] (setting [13]) it was less than 1 µg/mL; in experiment [7] it was less than 1 µg/mL. Moreover, the MIC in experiment [8], in experiment [9] (setting [14]) and in experiment [10] was less than 1 µg/mL each time.

Turning to `O=C(O)c1c(F)ccc2c1OB(O)[C@@H](NC(=O)C(NC(=O)N1CCN(C3CCN(C(=O)Nc4cc(O)c(F)cc4Cl)CC3)C(=O)C1=O)c1cc(F)c(O)c(O)c1Cl)C2` (stereo partly drawn) [Example 490, (3R)-3-(2-(4-(1-((2-chloro-4-fluoro-5-hydroxyphenyl)carbamoyl)piperidin-4-yl)-2,3-dioxopiperazine-1-carboxamido)-2-(2-chloro-5-fluoro-3,4-dihydroxyphenyl)acetamido)-7-fluoro-2-hydroxy-3,4-dihydro-2H-benzo[e][1,2]oxaborinine-8-carboxylic acid], the IC50 in experiment [1] was less than 10 µM. Besides, the MIC in experiment [2] is 32 to 64 µg/mL (≈ 37.5 to 75 µM); in experiment [3] (ATCC17978, read-out: Minimum inhibitory concentration (MIC), A. baumannii ATCC 17978), less than 1 µg/mL; in experiment [4], greater than 128 µg/mL; in [5] (CDC0045, read-out: Minimum inhibitory concentration (MIC), A. baumannii CDC-0045) it was less than 1 µg/mL; in experiment [6] (CDC0033, read-out: Minimum inhibitory concentration (MIC), A. baumannii CDC-0033), 2 to 4 µg/mL (≈ 2.34 to 4.69 µM); in experiment [7], less than 1 µg/mL. Further, the MIC in experiment [8] was 8 to 16 µg/mL (≈ 9.37 to 18.7 µM); in experiment [9] (Acinetobacter baumannii, 1258916, read-out: Minimum inhibitory concentration (MIC), A. baumannii 1258916), 2 to 4 µg/mL (≈ 2.34 to 4.69 µM); in experiment [10] it was less than 1 µg/mL.

As for `O=C(O)c1c(F)ccc2c1OB(O)[C@@H](NC(=O)[C@H](NC(=O)N1CCN(C3CCN(C(=O)c4c(F)ccc(O)c4Cl)CC3)C1=O)c1cc(F)c(O)c(O)c1Cl)C2` (single isomer, unassigned) [Example 440], the IC50 in experiment [1] is less than 10 µM. Besides, the MIC in [2], in experiment [3] (setting [11]), in [4], in experiment [5] (setting [12]), in experiment [6] (setting [13]) and in experiment [7] was less than 1 µg/mL each time. Further, the MIC in experiment [8], in experiment [9] (setting [14]) and in experiment [10] was less than 1 µg/mL each time.

In the case of `O=C(O)c1c(F)ccc2c1OB(O)[C@@H](NC(=O)[C@H](NC(=O)N1CCN(C3CCN(C(=O)c4ccc(O)cc4)CC3)C1=O)c1cc(F)c(O)c(O)c1Cl)C2` (single isomer, unassigned) [Example 463], the IC50 in experiment [1] was less than 10 µM. Besides, the MIC in [2], in experiment [3] (setting [11]), in [4], in experiment [5] (setting [12]), in [6] (setting [13]) and in experiment [7] was less than 1 µg/mL in each case. The MIC in experiment [8], in experiment [9] (setting [14]) and in experiment [10] was less than 1 µg/mL in each case.

With `O=C(O)c1c(F)ccc2c1OB(O)[C@@H](NC(=O)[C@H](NC(=O)N1CCN(C3CCN(C(=O)c4cc(O)c(F)c(O)c4)CC3)C1=O)c1cc(F)c(O)c(O)c1Cl)C2` (single isomer, unassigned) [Example 443], the IC50 in experiment [1] is less than 10 µM. Moreover, the MIC in [2], in experiment [3] (setting [11]), in experiment [4], in experiment [5] (setting [12]), in experiment [6] (setting [13]) and in [7] was less than 1 µg/mL throughout. The MIC in experiment [8], in experiment [9] (setting [14]) and in experiment [10] was less than 1 µg/mL throughout.

With `O=C(O)c1c(F)ccc2c1OB(O)[C@@H](NC(=O)[C@H](NC(=O)N1CCN(C3CCN(C(=O)Nc4cc(O)cc(O)c4)CC3)C1=O)c1cc(F)c(O)c(O)c1Cl)C2` [Example 456, (R)-3-((R)-2-(2-chloro-5-fluoro-3,4-dihydroxyphenyl)-2-(3-(1-((3,5-dihydroxyphenyl)carbamoyl)piperidin-4-yl)-2-oxoimidazolidine-1-carboxamido)acetamido)-7-fluoro-2-hydroxy-3,4-dihydro-2H-benzo[e][1,2]oxaborinine-8-carboxylic acid], the IC50 in experiment [1] is less than 10 µM. In addition, the MIC in experiment [2], in experiment [3] (setting [11]), in [4], in experiment [5] (setting [12]), in experiment [6] (setting [13]) and in experiment [7] was less than 1 µg/mL throughout. In addition, the MIC in experiment [8], in [9] (setting [14]) and in experiment [10] was less than 1 µg/mL in each case.

In the case of `O=C(NCCCS(=O)(=O)N1CCN(C(=O)N[C@H](C(=O)N[C@H]2Cc3ccc(F)c(C(=O)O)c3OB2O)c2ccc(P(=O)(O)O)cc2)C1=O)c1ccc(O)c(O)c1Cl` (single isomer, unassigned) [Example 169], the IC50 in experiment [1] fell in the range of 10 to 50 µM. Moreover, the MIC in experiment [2], in experiment [3] (setting [11]), in experiment [4], in experiment [5] (setting [12]), in experiment [6] (setting [13]) and in experiment [7] was greater than 128 µg/mL in each case. Further, the MIC in [8], in [9] (setting [14]) and in experiment [10] was greater than 128 µg/mL each time.

`O=C(O)c1c(F)ccc2c1OB(O)[C@@H](NC(=O)[C@H](NC(=O)N1CCN(C3CCN(C(=O)Nc4cc(O)ccc4Cl)CC3)C1=O)c1cc(F)c(O)c(O)c1Cl)C2` (single isomer, unassigned) [Example 448]: the IC50 in experiment [1] is less than 10 µM. Besides, the MIC in experiment [2], in experiment [3] (setting [11]), in experiment [4], in [5] (setting [12]), in [6] (setting [13]) and in [7] was less than 1 µg/mL throughout. The MIC in experiment [8], in experiment [9] (setting [14]) and in [10] was less than 1 µg/mL throughout.

Regarding `O=C(O)c1c(F)ccc2c1OB(O)[C@@H](NC(=O)C(NC(=O)N1CCN(C3CCN(C(=O)Nc4cc(O)ccc4Cl)CC3)C(=O)C1=O)c1cc(F)c(O)c(O)c1Cl)C2` (stereo partly drawn) [Example 483, (3R)-3-(2-(2-chloro-5-fluoro-3,4-dihydroxyphenyl)-2-(4-(1-((2-chloro-5-hydroxyphenyl)carbamoyl)piperidin-4-yl)-2,3-dioxopiperazine-1-carboxamido)acetamido)-7-fluoro-2-hydroxy-3,4-dihydro-2H-benzo[e][1,2]oxaborinine-8-carboxylic acid], the IC50 in [1] was less than 10 µM. For the same molecule, the MIC in experiment [2] was 32 to 64 µg/mL (≈ 38.3 to 76.6 µM); in experiment [3] (setting [11]) it was less than 1 µg/mL; in [4], greater than 128 µg/mL; in experiment [5] (setting [12]) it was less than 1 µg/mL; in [6] (setting [13]), 8 to 16 µg/mL (≈ 9.58 to 19.2 µM); in [7] it was less than 1 µg/mL. Also, the results for the MIC in experiment [8], in experiment [9] (setting [14]) and in experiment [10] were 2 to 4 µg/mL (≈ 2.39 to 4.79 µM), less than 1 µg/mL and less than 1 µg/mL, respectively.
